Biological target: T1, WIZ protein (HiBit-WIZ fusion protein) (Homo sapiens, UniProt O95785+Q96SW2)
T1 construct: expressed in transfected cells
Assay: Quantification of WIZ protein levels in HiBit tag fusion protein assay (WIZ HiBit assay in 293T cells)
Type: cell-based
Conditions: for Dmax at 25 µM / remaining activity at 25 µM: HEK-293T, 293T cells; for Dmax at 25 µM: 100 − Amax, read-out: % degradation of WIZ (100 − Amax); for remaining activity at 25 µM: DMSO-normalized, curve-fitted percentage of WIZ-HiBit remaining at 25 uM, read-out: WIZ Amax; for DC50: WIZ HiBit assay in 293T cells, 10-point, 5-fold dose response, highest concentration 25 μM, about 18 hours, read-out: WIZ AC50
In short: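 Luminescence after LgBit complementation quantified remaining HiBit-WIZ in lysates of single-copy stable 293T lines. Cells dosed ~18 h at 37 °C with 10-point, 5-fold dilutions (highest 25 μM); DMSO set to 100%, fitted curve gave % remaining at 25 μM (Amax).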

T1 sequence (O95785 whole entry, the tested form may be a part): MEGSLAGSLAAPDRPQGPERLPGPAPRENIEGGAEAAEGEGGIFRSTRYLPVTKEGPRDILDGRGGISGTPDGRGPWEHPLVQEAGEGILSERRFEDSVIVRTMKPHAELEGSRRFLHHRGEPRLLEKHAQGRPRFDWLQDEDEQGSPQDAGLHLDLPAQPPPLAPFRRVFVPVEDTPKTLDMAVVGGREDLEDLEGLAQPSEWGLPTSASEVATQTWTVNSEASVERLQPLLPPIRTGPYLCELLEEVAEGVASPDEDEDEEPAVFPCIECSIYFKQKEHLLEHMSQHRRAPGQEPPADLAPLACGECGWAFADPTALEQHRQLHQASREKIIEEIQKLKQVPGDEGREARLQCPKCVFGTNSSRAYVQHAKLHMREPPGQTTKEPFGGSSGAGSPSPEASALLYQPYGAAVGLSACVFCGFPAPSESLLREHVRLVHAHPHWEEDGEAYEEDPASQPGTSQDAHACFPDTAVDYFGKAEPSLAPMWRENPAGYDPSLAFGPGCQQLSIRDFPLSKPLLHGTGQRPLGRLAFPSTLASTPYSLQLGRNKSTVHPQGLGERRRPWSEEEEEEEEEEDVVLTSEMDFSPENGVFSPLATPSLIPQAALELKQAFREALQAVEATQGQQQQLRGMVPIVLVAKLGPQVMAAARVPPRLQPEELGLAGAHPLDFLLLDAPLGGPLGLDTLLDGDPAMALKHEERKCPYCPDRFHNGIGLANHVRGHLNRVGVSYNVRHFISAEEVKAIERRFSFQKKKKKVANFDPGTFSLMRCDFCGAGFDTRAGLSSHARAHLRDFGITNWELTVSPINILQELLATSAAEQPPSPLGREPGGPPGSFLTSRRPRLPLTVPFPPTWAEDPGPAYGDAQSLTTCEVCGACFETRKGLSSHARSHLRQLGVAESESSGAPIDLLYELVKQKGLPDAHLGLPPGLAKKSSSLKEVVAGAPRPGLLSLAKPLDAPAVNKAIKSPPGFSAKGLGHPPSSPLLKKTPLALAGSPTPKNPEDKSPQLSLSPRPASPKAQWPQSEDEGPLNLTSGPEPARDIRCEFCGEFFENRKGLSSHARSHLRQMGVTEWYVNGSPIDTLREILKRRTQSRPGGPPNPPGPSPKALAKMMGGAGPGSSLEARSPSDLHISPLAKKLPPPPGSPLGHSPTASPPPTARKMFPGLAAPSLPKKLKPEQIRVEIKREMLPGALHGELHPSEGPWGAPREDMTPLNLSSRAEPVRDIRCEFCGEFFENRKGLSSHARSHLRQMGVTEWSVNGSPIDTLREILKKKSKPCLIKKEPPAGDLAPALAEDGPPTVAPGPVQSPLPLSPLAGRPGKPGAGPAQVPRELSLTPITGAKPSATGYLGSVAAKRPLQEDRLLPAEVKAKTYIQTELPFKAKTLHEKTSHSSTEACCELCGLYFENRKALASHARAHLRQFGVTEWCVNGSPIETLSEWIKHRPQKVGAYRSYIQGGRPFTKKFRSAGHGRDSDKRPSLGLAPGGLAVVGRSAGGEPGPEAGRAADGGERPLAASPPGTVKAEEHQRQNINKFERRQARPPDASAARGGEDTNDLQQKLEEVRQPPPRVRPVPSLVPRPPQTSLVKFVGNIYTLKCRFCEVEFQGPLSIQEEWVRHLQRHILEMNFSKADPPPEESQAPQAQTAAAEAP
T1 sequence (Q96SW2 whole entry, the tested form may be a part): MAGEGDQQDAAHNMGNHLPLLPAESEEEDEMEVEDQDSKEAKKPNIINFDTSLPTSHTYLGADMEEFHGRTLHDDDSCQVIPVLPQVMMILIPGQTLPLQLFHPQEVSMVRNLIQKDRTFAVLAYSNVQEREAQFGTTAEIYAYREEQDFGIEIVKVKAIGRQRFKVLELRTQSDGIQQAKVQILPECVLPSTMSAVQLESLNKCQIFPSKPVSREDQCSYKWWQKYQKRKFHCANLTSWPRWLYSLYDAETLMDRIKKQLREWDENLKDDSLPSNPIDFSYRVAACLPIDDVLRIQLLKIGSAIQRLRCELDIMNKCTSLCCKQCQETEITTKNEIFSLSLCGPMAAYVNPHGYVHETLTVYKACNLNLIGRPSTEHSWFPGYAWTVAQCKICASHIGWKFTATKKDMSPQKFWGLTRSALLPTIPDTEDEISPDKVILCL
T1 sequence (Q16531 whole entry partner, the tested form may be a part): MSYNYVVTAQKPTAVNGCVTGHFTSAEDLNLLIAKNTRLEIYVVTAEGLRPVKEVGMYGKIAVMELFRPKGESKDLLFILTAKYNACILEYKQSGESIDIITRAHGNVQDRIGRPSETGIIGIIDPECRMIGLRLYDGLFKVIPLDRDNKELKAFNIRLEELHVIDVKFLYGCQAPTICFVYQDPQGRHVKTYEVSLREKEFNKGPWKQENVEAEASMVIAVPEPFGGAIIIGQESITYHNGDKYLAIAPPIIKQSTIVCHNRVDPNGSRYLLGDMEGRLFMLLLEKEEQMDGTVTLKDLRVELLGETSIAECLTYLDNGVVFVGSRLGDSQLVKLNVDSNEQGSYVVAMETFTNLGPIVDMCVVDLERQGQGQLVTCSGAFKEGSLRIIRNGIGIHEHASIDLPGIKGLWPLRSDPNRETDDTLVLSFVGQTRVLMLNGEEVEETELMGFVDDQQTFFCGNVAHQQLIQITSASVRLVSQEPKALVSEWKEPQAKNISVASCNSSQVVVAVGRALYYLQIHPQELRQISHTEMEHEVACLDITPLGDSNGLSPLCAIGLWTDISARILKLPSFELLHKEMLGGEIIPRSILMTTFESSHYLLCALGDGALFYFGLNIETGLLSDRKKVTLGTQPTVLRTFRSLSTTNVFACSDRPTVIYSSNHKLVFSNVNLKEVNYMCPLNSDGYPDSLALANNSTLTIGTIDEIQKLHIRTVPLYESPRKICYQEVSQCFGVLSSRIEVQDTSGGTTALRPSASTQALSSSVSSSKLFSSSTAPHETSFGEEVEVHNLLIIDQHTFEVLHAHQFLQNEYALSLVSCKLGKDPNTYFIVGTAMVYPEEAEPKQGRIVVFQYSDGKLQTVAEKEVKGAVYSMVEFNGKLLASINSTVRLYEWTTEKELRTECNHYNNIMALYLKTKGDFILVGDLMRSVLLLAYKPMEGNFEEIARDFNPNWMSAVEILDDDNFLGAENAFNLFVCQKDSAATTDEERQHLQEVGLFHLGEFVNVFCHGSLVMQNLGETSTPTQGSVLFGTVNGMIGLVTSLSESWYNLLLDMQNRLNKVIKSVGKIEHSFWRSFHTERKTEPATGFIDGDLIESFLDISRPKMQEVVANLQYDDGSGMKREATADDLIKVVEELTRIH

SMILES | Dmax at 25 µM [%] | remaining activity at 25 µM [%] | DC50 [nM]
O=C1CCN(c2cnn3ccc(CN4C[C@H]5CC[C@@H](C4)N5Cc4cccc(F)c4)cc23)C(=O)N1 [Example 251, 1-(5-(((1R,5S)-8-(3-fluorobenzyl)-3,8-diazabicyclo[3.2.1]octan-3-yl)methyl)pyrazolo[1,5-a]pyridin-3-yl)dihydropyrimidine-2,4(1H,3H)-dione] | 18 | 82 | 165
O=C1CCN(c2cnn3ccc(CC4CCN(S(=O)(=O)NC5CCCC5)CC4)cc23)C(=O)N1 [Example 298, N-cyclopentyl-4-((3-(2,4-dioxotetrahydropyrimidin-1(2H)-yl)pyrazolo[1,5-a]pyridin-5-yl)methyl)piperidine-1-sulfonamide] | 51 | 49 | 242
CC(C)(C)OC(=O)N1CCCC(Cc2ccn3ncc(N4CCC(=O)NC4=O)c3c2)CC1 (stereo not drawn) [Example 270, tert-butyl 4-((3-(2,4-dioxotetrahydropyrimidin-1(2H)-yl)pyrazolo[1,5-a]pyridin-5-yl)methyl)azepane-1-carboxylate] | 57 | 43 | 99
O=C1CCN(c2cnn3ccc(CN4CCN5C(=O)COC[C@H]5C4)cc23)C(=O)N1 [Example 314, (R)-1-(5-((4-oxohexahydropyrazino[2,1-c][1,4]oxazin-8(1H)-yl)methyl)pyrazolo[1,5-a]pyridin-3-yl)dihydropyrimidine-2,4(1H,3H)-dione] | 34 | 66 | 2560
CC(C)[C@H]1CN(Cc2ccn3ncc(N4CCC(=O)NC4=O)c3c2)CCN1CC1CCOCC1 [Example 230, (S)-1-(5-((3-isopropyl-4-((tetrahydro-2H-pyran-4-yl)methyl)piperazin-1-yl)methyl)pyrazolo[1,5-a]pyridin-3-yl)dihydropyrimidine-2,4(1H,3H)-dione] | 0 | 100 | > 25000
O=C1CCN(c2cnn3ccc(CC4CCN(Cc5cccnc5)C4)cc23)C(=O)N1 (stereo not drawn) [Example 129] | 35 | 65 | 800
C[C@@H]1CN(Cc2ccn3ncc(N4CCC(=O)NC4=O)c3c2)CCN1CC1CCCCC1 [Example 214] | 65 | 35 | 151
CC(C)(CN1CCN(Cc2ccn3ncc(N4CCC(=O)NC4=O)c3c2)CC1)C(F)(F)F [Example 241, 1-(5-((4-(3,3,3-trifluoro-2,2-dimethylpropyl)piperazin-1-yl)methyl)pyrazolo[1,5-a]pyridin-3-yl)dihydropyrimidine-2,4(1H,3H)-dione] | 44 | 56 | 351
O=C1CCN(c2cnn3ccc(CN4CCN5CCC[C@H]5C4)cc23)C(=O)N1 [Example 260, (S)-1-(5-((hexahydropyrrolo[1,2-a]pyrazin-2(1H)-yl)methyl)pyrazolo[1,5-a]pyridin-3-yl)dihydropyrimidine-2,4(1H,3H)-dione] | 68 | 32 | 796
C[C@@H]1CN(Cc2ccn3ncc(N4CCC(=O)NC4=O)c3c2)C[C@H](C)N1CC1CCOCC1 [Example 256, 1-(5-(((3S,5R)-3,5-dimethyl-4-((tetrahydro-2H-pyran-4-yl)methyl)piperazin-1-yl)methyl)pyrazolo[1,5-a]pyridin-3-yl)dihydropyrimidine-2,4(1H,3H)-dione] | 78 | 22 | 186
CC(C)CN1CCN(Cc2ccn3ncc(N4CCC(=O)NC4=O)c3c2)C[C@@H]1C(C)C [Example 229, (S)-1-(5-((4-isobutyl-3-isopropylpiperazin-1-yl)methyl)pyrazolo[1,5-a]pyridin-3-yl)dihydropyrimidine-2,4(1H,3H)-dione] | 0 | 100 | > 25000
C[C@H]1CC(F)(Cc2ccn3ncc(N4CCC(=O)NC4=O)c3c2)CCN1C1COC1 (single isomer, unassigned) [Example 310] | 73 | 27 | 150
CC(C)CN1CCN(C(C)c2ccn3ncc(N4CCC(=O)NC4=O)c3c2)CC1 (stereo not drawn) [Example 345, 1-(5-(1-(4-isobutylpiperazin-1-yl)ethyl)pyrazolo[1,5-a]pyridin-3-yl)dihydropyrimidine-2,4(1H,3H)-dione] | 73 | 27 | 191

Stronger by DC50, values ahead:

Dmax at 25 µM [%] | remaining activity at 25 µM [%] | DC50 [nM] | SMILES
76 | 24 | 65 | C[C@H]1C[C@H](Cc2ccn3ncc(N4CCC(=O)NC4=O)c3c2)CCN1S(=O)(=O)NC1CCCC1 [Example 293]
87 | 13 | 10 | C[C@H]1CN(Cc2ccn3ncc(N4CCC(=O)NC4=O)c3c2)CCN1C[C@H]1C[C@@H](F)[C@@H](F)C1 [Example 318, 1-(5-(((S)-4-(((1r,3R,4S)-3,4-difluorocyclopentyl)methyl)-3-methylpiperazin-1-yl)methyl)pyrazolo[1,5-a]pyridin-3-yl)dihydropyrimidine-2,4(1H,3H)-dione]
83 | 17 | 33 | O=C1CCN(c2cnn3ccc(CN4CCN(C5CCCCC5)CC4)cc23)C(=O)N1 [Example 338, 1-(5-((4-cyclohexylpiperazin-1-yl)methyl)pyrazolo[1,5-a]pyridin-3-yl)dihydropyrimidine-2,4(1H,3H)-dione]
76 | 24 | 48 | O=C1CCN(c2cnn3ccc(CN4CCN(CCc5ccccc5)CC4)cc23)C(=O)N1 [Example 178]
91 | 9 | 47 | Cc1cn(-c2cnn3ccc(C[C@@H]4CCN(CC5CCC(F)(F)CC5)[C@@H](C)C4)cc23)c(=O)[nH]c1=O [Example 351, 1-(5-(((2S,4R)-1-((4,4-difluorocyclohexyl)methyl)-2-methylpiperidin-4-yl)methyl)pyrazolo[1,5-a]pyridin-3-yl)-5-methylpyrimidine-2,4(1H,3H)-dione]
78 | 22 | 67 | C[C@H]1CN(Cc2ccn3ncc(N4CCC(=O)NC4=O)c3c2)CCN1CC1CC1 [Example 321, (S)-1-(5-((4-(cyclopropylmethyl)-3-methylpiperazin-1-yl)methyl)pyrazolo[1,5-a]pyridin-3-yl)dihydropyrimidine-2,4(1H,3H)-dione]
85 | 15 | 5 | C[C@H]1CN(Cc2ccn3ncc(N4CCC(=O)NC4=O)c3c2)CCN1CC1CCOCC1 [Example 202]
87 | 13 | 9 | C[C@H]1CN(Cc2ccn3ncc(N4CCC(=O)NC4=O)c3c2)CCN1CC1CCCCCC1 [Example 198, (S)-1-(5-((4-(cycloheptylmethyl)-3-methylpiperazin-1-yl)methyl)pyrazolo[1,5-a]pyridin-3-yl)dihydropyrimidine-2,4(1H,3H)-dione]
84 | 16 | 19 | O=C1CCN(c2cnn3ccc(CC4CCN(CCC5CCC5)CC4)cc23)C(=O)N1 [Example 13, 1-(5-((1-(2-cyclobutylethyl)piperidin-4yl)methyl)pyrazolo[1,5-a]pyridin-3-yl)dihydropyrimidine-2,4(1H,3H)-dione]
90 | 10 | 5 | O=C1CCN(c2cnn3ccc(CC4CCN(CC5CCC(F)(F)CC5)CC4)cc23)C(=O)N1 [Example 4, 1-(5-((1-((4,4-difluorocyclohexyl)methyl)piperidin-4-yl)methyl)pyrazolo[1,5-a]pyridin-3-yl)dihydropyrimidine-2,4(1H,3H)-dione]
87 | 13 | 6 | CC(C)CN1CC[C@H](Cc2ccn3ncc(N4CCC(=O)NC4=O)c3c2)C[C@@H]1C [Example 72]
75 | 25 | 92 | C[C@@H]1CN(Cc2ccn3ncc(N4CCC(=O)NC4=O)c3c2)CCN1CC1CCOCC1 [Example 217]
83 | 17 | 4 | C[C@H]1CN(Cc2ccn3ncc(N4CCC(=O)NC4=O)c3c2)CCN1C[C@H]1CC[C@H](C(F)(F)F)CC1 [Example 323, 1-(5-(((S)-3-methyl-4-(((1r,4S)-4-(trifluoromethyl)cyclohexyl)methyl)piperazin-1-yl)methyl)pyrazolo[1,5-a]pyridin-3-yl)dihydropyrimidine-2,4(1H,3H)-dione]
86 | 14 | 9 | C[C@@H]1CC(CN2CCN(Cc3ccn4ncc(N5CCC(=O)NC5=O)c4c3)C[C@@H]2C)C[C@H](C)O1 (stereo partly drawn) [Example 199, 1-(5-(((3S)-4-(((2R,6S)-2,6-dimethyltetrahydro-2H-pyran-4-yl)methyl)-3-methylpiperazin-1-yl)methyl)pyrazolo[1,5-a]pyridin-3-yl)dihydropyrimidine-2,4(1H,3H)-dione]
84 | 16 | 31 | CCC(C)CN1CCC(Cc2ccn3ncc(N4CCC(=O)NC4=O)c3c2)CC1 (stereo not drawn) [Example 9, 1-(5-((1-(2-methylbutyl)piperidin-4-yl)methyl)pyrazolo[1,5-a]pyridin-3-yl)dihydropyrimidine-2,4(1H,3H)-dione]
